Tests used:
E. coli [1] = test: photodisinfection of E. coli biofilms in vitro (Periowave laser); assay type: cell-based, Escherichia coli
Excerpt: (§1) Photodisinfection treatments using methods contemplated by the present invention have been tested against MRSA, Escherichia coli (E. coli), and Enterococcus fecalis (E. fecalis) in vitro and reached high levels of disinfection in within seconds to one minute. Photosensitizing composition comprising of methylene blue at various concentrations ranging from about 0.005 wt % to 0.1 wt % was applied to biofilms of MRSA, E. coli and E. fecalis for about ten seconds. These biofilms were then illuminated by a laser light system at a wavelength of about 665 nm to about 675 nm for a period from about 0 seconds to about 60 seconds (e.g., accumulated energy level of about 0 J/cm^2 to about 9 J/cm^2). The laser light system used was the Periowave™ system which includes a low-intensity laser with power at about 240 mW and the optical probe described in PCT Patent Publication No. WO2006115761.

E. fecalis = test: photodisinfection of E. fecalis biofilms in vitro (Periowave laser); assay type: cell-based, Enterococcus fecalis; conditions: methylene blue and a low power laser
Excerpt: as §1

MRSA [2] = test: SEM evaluation of MRSA biofilms after photodisinfection; assay type: cell-based, Methicillin-resistant Staphylococcus aureus; conditions: about 0.1 wt % methylene blue, about 10 seconds contact, 665-675 nm, about 30 seconds
Description: (§2) Biofilms heavily colonized with one to four layers of MRSA organisms were contacted with a photosensitizing composition comprising methylene blue at a concentration of about 0.1 wt % for about 10 seconds and then illuminated at a wavelength of about 665 nm to about 675 nm for a period from about 30 seconds using the Periowave™ laser. Thereafter, these biofilms and the controlled MRSA biofilms (e.g., no photodisinfection treatment) were incubated overnight in 0.9 wt % saline and then fixed in 10 wt % Formalin for scanning electron microscope (SEM) evaluation.

otitis externa [3] = test: study on patients suffering otitis externa (photodisinfection, Periowave laser); assay type: in vivo, human; conditions: about 0.01 wt % methylene blue by cotton swab, 665-675 nm, about 3 to 5 minutes (3-5 one minute cycles); many patients
Description: A study was conducted on patients suffering otitis externa. During the study, a photosensitizing composition comprising of methylene blue at a concentration of about 0.01 wt % was applied using a cotton swab to the treatment site as shown in FIG. 37. Thereafter and referring to FIGS. 38-39, light at a wavelength range from about 665 nm to about 675 nm was applied to the photosensitizing composition located within the treatment site 64 for a period from about 3 minutes to about 5 minutes (3-5 repetitive one minute cycles) using the Periowave™ laser light system.

E. coli [4] = test: SEM evaluation of E. coli biofilms after photodisinfection; assay type: cell-based, Escherichia coli; conditions: about 0.1 wt % methylene blue, about 10 seconds contact, 665-675 nm, about 30 seconds
Description: as §2, with “to three” for “to four”, “of Escherichia coli (E. coli)” for “of MRSA”, “controlled E. coli” for “controlled MRSA”, “incubated for three hours” for “incubated overnight”, “in 0.9%” for “in 0.9 wt %”, “in 10%” for “in 10 wt %”

otitis externa [5] = test: photodisinfection of otitis externa treatment site (Examples V to VII); assay type: in vivo
Description: A photosensitizing composition comprising of methylene blue at a concentration of about 0.1 wt % is applied to the otitis externa treatment site. Light at a wavelength range from about 650 nm to about 680 nm is applied to the photosensitizing composition located within the otitis externa treatment site for a period from about 6 minutes to about 10 minutes using a laser with power at about 80 mW. The otitis externa was ameliorated.
A photosensitizing composition comprising of methylene blue at a concentration range of from about 0.001 wt % to about 0.1 wt % is applied to the otitis externa treatment site. Light at a wavelength range from about 650 nm to about 680 nm is applied to the photosensitizing composition located within the treatment site for a period from about 1 minute to about 20 minutes using a laser with power at a range from about 50 mW to about 300 mW. The otitis externa was ameliorated.
A photosensitizing composition comprising of toluidine blue at a concentration range of from about 0.001% wt % to about 0.1 wt % is applied to the otitis externa treatment site. Light at a wavelength range from about 620 nm to about 650 nm is applied to the photosensitizing composition located within the otitis externa treatment site for a period from about 1 minute to about 20 minutes using a laser with power at a range from about 50 mW to about 300 mW. The otitis externa was ameliorated.
For Examples V to VII, it was shown that there is a general inverse relationship between (1) the photosensitizer concentration and (2) the photodisinfection treatment time and/or the amount of power required for the light source. For example, higher concentration of photosensitizer requires less treatment time and/or lower light source power. Conversely, lower concentration of photosensitizer requires longer treatment time and/or higher light source power. Also, less treatment time requires higher concentration of photosensitizer and/or higher light source power.

MRSA [6] = test: photodisinfection of MRSA biofilms in vitro (Periowave laser); assay type: cell-based, Methicillin-resistant Staphylococcus aureus
Excerpt: as §1

[7] = at least 0.02 wt % methylene blue, about ten seconds contact, about 665-675 nm laser about 240 mW for at least 15 seconds (at least 2.25 J/cm^2)
[8] = methylene blue and a low power laser

| Compound | reduction of E. coli (E. coli [1]; [7]) | elimination of E. coli by photodisinfection (E. coli [1]; [8]) | elimination of E. Fecalis by photodisinfection (E. fecalis) | reduction of MRSA in SEM photograph (FIG. 34 vs FIG. 33) (MRSA [2]) | outcome of otitis externa (otitis externa [3]) | reduction of E. coli in SEM photograph (FIG. 36 vs FIG. 35) (E. coli [4]) | outcome of otitis externa (otitis externa [5]; Example V: about 0.1 wt %, 650-680 nm, about 6 to 10 minutes, laser about 80 mW) | outcome of otitis externa (otitis externa [5]; Example VI: about 0.001 to 0.1 wt %, 650-680 nm, about 1 to 20 minutes, laser about 50 to 300 mW) | reduction of MRSA (MRSA [6]; [7]) | elimination of MRSA by photodisinfection (MRSA [6]; [8]) | outcome of otitis externa (otitis externa [5]; Example VII: about 0.001 to 0.1 wt %, 620-650 nm, about 1 to 20 minutes, laser about 50 to 300 mW) |
| --- | --- | --- | --- | --- | --- | --- | --- | --- | --- | --- | --- |
| CN(C)c1ccc2nc3ccc(=[N+](C)C)cc-3sc2c1 [methylene blue] | at least three | effectively eliminated | effectively eliminated | substantial reduction of MRSA | ameliorated | substantial reduction of E. coli | ameliorated | ameliorated | at least three | effectively eliminated |  |
| Cc1cc2nc3ccc(N(C)C)cc3[s+]c2cc1N.[Cl-] [toluidine blue] |  |  |  |  |  |  |  |  |  |  | ameliorated |

Reference: patent US20070255356A1, “PHOTODI[…] DEVICES AND METHODS” (Ondine International, Ltd., priority 2006, published 2007)
